Results on 20 compounds are retold here after US12344610B2, “APOL1 inhibitors and methods of use” (Maze Therapeutics, Inc., priority 2022, dated 2025).

pEC50: −log10 of the molar value.

One may read the pEC50 as the negative decadic logarithm of the EC50, by convention in mol/L.

Test [1] has as its system HEK293 clonal cell line overexpressing APOL1 G1. The test can be described thus: APOL1 G1 HEK293 cell rescue assay (Example B3). The following applies: Homo sapiens, HEK293, HEK293 clonal line overexpressing APOL1 G1; geometric mean of at least 2 runs; † = single run; ¥ = concentration at 50% rescue estimated (no sigmoidal curve). The class given is cell-based. In a few lines:
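Rescue of cell death caused by APOL1 G1 overexpression was measured in a clonal HEK293 line. Compounds were tested in duplicate on one plate, and EC50s were geometric means across at least two runs on different days. Some values are estimated 50%-rescue concentrations where curve fitting failed.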

The test system of test [2] is Trypanosoma brucei Lister 427 VSG221 with APOL1 G2 recombinant protein. Kind of test: APOL1 G2 trypanosome cell rescue assay (Example B5). It counts as cell-based. The following applies: Trypanosoma brucei, 20 h, read-out: APOL1 G2 Trypanosome Rescue EC50, Trypanosoma brucei Lister 427 VSG221 with APOL1 G2 recombinant protein, 20 hours, CellTiter-Glo; geometric mean of at least 2 assay runs; † = single assay run. In short, it runs like this: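 Viability read by CellTiter-Glo luminescence after 20 h co-incubation (37° C, 5% CO2) of 250 trypanosomes/well in modified HMI-9 with test compound (duplicate 11-point, 2-fold dilutions, 0.4% DMSO) and APOL1 protein, […]. Protein: mature residues 28-398, E. coli inclusion-body refolded, tag cleaved, in DDM.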

For the compound `Cc1cc(OCCN2CCC3(CC2)C(=O)Nc2ccc(C#N)cc23)cnc1S(C)(=O)=O` [Compound 140, 1′-{2-[(6-methanesulfonyl-5-methylpyridin-3-yl)oxy]ethyl}-2-oxo-1,2-dihydrospiro[indole-3,4′-piperidine]-5-carbonitrile], the negative logarithm of the EC50 (pEC50) was 6.22 in test [1] and 6.79 in test [2].
`CC(C)N1C(=O)Cc2cc(OCCN3CCC4(CC3)C(=O)Nc3ccc(C#N)cc34)ccc21` [Compound 144, 2-oxo-1′-(2-{[2-oxo-1-(propan-2-yl)-2,3-dihydro-1H-indol-5-yl]oxy}ethyl)-1,2-dihydrospiro[indole-3,4′-piperidine]-5-carbonitrile]: the negative logarithm of the EC50 (pEC50) was 6.61 in test [1] and 7.00 in test [2].
`CC(C)N1C(=O)Cc2cc(OCCN3CCC4(CC3)C(=O)Nc3ccc(Cl)cc34)ccc21` [Compound 145, 5-chloro-1′-(2-{[2-oxo-1-(propan-2-yl)-2,3-dihydro-1H-indol-5-yl]oxy}ethyl)-1,2-dihydrospiro[indole-3,4′-piperidin]-2-one]: the negative logarithm of the EC50 (pEC50) is 7.01 in test [1] and 7.45 in test [2].
With `CN1Cc2cc(OCCN3CCC4(CC3)C(=O)Nc3ccc(Cl)cc34)ccc2C1=O` [Compound 146, 5-chloro-1′-{2-[(2-methyl-1-oxo-2,3-dihydro-1H-isoindol-5-yl)oxy]ethyl}-1,2-dihydrospiro[indole-3,4′-piperidin]-2-one], the pEC50 is 6.66 in test [1] and 6.92 in test [2].
As for `CN=S(C)(=O)c1ccc(OCCN2CCC3(CC2)C(=O)Nc2ccc(Cl)cc23)cc1` (stereo not shown) [Compound 147, 5-chloro-1′-(2-{4-[methyl(methylimino)oxo-λ^6-sulfanyl]phenoxy}ethyl)-1,2-dihydrospiro[indole-3,4′-piperidin]-2-one], the pEC50 in test [1] is 6.74; in test [2], 7.18.
In the same order, the values of `CN=S(C)(=O)c1ccc(OCCN2CCC3(CC2)C(=O)Nc2ccc(C#N)cc23)cc1` (stereo not shown) [Compound 150, 1′-(2-{4-[methyl(methylimino)oxo-λ^6-sulfanyl]phenoxy}ethyl)-2-oxo-1,2-dihydrospiro[indole-3,4′-piperidine]-5-carbonitrile] are 5.81 and 6.28.
Consider `CN1CCc2cc(OCCN3CCC4(CC3)C(=O)Nc3ccc(Cl)cc34)ccc2S1(=O)=O` [Compound 153, 6-(2-{5-chloro-2-oxo-1,2-dihydrospiro[indole-3,4′-piperidin]-1′-yl}ethoxy)-2-methyl-3,4-dihydro-2H-1λ^6,2-benzothiazine-1,1-dione], for which the pEC50 was 7.02 in test [1] and 7.59 in test [2].
Take `CN1CCc2cc(OCCN3CCC4(CC3)C(=O)Nc3ccc(C#N)cc34)ccc2S1(=O)=O` [Compound 154, 1′-{2-[(2-methyl-1,1-dioxo-3,4-dihydro-2H-1λ^6,2-benzothiazin-6-yl)oxy]ethyl}-2-oxo-1,2-dihydrospiro[indole-3,4′-piperidine]-5-carbonitrile]: the figures for the pEC50 in test [1] and in test [2] were 6.60 and 6.80, respectively.
Take `CS(=O)(=O)c1ccc(OCCN2CCC3(CC2)C(=O)Nc2ccc(Cl)cc23)cc1Cl` [Compound 155, 5-chloro-1′-[2-(3-chloro-4-methanesulfonylphenoxy)ethyl]-1,2-dihydrospiro[indole-3,4′-piperidin]-2-one]: the pEC50 was 7.17 in test [1] and 8.02 in test [2].
Turning to `CS(=O)(=O)c1ccc(OCCN2CCC3(CC2)C(=O)Nc2ccc(C#N)cc23)cc1Cl` [Compound 156, 1′-[2-(3-chloro-4-methanesulfonylphenoxy)ethyl]-2-oxo-1,2-dihydrospiro[indole-3,4′-piperidine]-5-carbonitrile], the negative logarithm of the EC50 (pEC50) in test [1] is 6.82; in test [2] it was 7.35.
In the case of `CC(C)(C#N)c1ccc(OCCN2CCC3(CC2)C(=O)Nc2ccc(C#N)cc23)cc1` [Compound 157, 1′-{2-[4-(1-cyano-1-methylethyl)phenoxy]ethyl}-2-oxo-1,2-dihydrospiro[indole-3,4′-piperidine]-5-carbonitrile], the pEC50 in test [1] was 6.82; in test [2], 7.35.
For `CC1(S(=O)(=O)c2ccc(OCCN3CCC4(CC3)C(=O)Nc3ccc(Cl)cc34)cn2)COC1` [Compound 158, 5-chloro-1′-[2-({6-[(3-methyloxetan-3-yl)sulfonyl]pyridin-3-yl}oxy)ethyl]-1,2-dihydrospiro[indole-3,4′-piperidin]-2-one], the negative logarithm of the EC50 (pEC50) in test [1] was 6.60; in test [2], 7.34.
As to `CS(=O)(=O)C1(c2ccc(OCCN3CCC4(CC3)C(=O)N(CCO)c3ccc(Cl)cc34)cc2)COC1` [Compound 160, 5-chloro-1-(2-hydroxyethyl)-1′-{2-[4-(3-methanesulfonyloxetan-3-yl)phenoxy]ethyl}-1,2-dihydrospiro[indole-3,4′-piperidin]-2-one], the negative-log EC50 (pEC50) in test [1] was 6.61; in test [2] it was 7.37.
As for `Cc1cc(OCCN2CCC3(CC2)C(=O)Nc2ccc(Cl)cc23)cnc1S(C)(=O)=O` [Compound 161, 5-chloro-1′-{2-[(6-methanesulfonyl-5-methylpyridin-3-yl)oxy]ethyl}-1,2-dihydrospiro[indole-3,4′-piperidin]-2-one], the negative logarithm of the EC50 (pEC50) in test [1] is 6.87; in test [2], 7.48.
On to `O=C1CCc2cc(OCCN3CCC4(CC3)C(=O)Nc3ccc(Cl)cc34)ccc2N1CCO` [Compound 162, 5-chloro-1′-(2-{[1-(2-hydroxyethyl)-2-oxo-1,2,3,4-tetrahydroquinolin-6-yl]oxy}ethyl)-1,2-dihydrospiro[indole-3,4′-piperidin]-2-one], for which the pEC50 is 6.76 in test [1] and 7.29 in test [2].
For the compound `CS(=O)(=O)c1ccc(OCCN2CCC3(CC2)C(=O)Nc2ccc(Cl)cc23)cc1OC(F)F` [Compound 163, 5-chloro-1′-{2-[3-(difluoromethoxy)-4-methanesulfonylphenoxy]ethyl}-1,2-dihydrospiro[indole-3,4′-piperidin]-2-one], the results for the negative logarithm of the EC50 (pEC50) in test [1] and in test [2] were 6.95 and 7.67, respectively.
In the same order, the values of `CS(=O)(=O)c1ccc(OCCN2CCC3(CC2)C(=O)Nc2ccc(C#N)cc23)cc1OC(F)F` [Compound 164, 1′-{2-[3-(difluoromethoxy)-4-methanesulfonylphenoxy]ethyl}-2-oxo-1,2-dihydrospiro[indole-3,4′-piperidine]-5-carbonitrile] are 6.50 and 7.06.
The matching figures for `CS(=O)(=O)C1(c2ccc(OCCN3CCC4(CC3)C(=O)Nc3ccc(Cl)cc34)cc2C(F)(F)F)COC1` [Compound 165, 5-chloro-1′-{2-[4-(3-methanesulfonyloxetan-3-yl)-3-(trifluoromethyl)phenoxy]ethyl}-1,2-dihydrospiro[indole-3,4′-piperidin]-2-one]: 7.23 and 7.95.
On to `CS(=O)(=O)C1(c2ccc(OCCN3CCC4(CC3)C(=O)Nc3ccc(C#N)cc34)cc2C(F)(F)F)COC1` [Compound 166, 1′-{2-[4-(3-methanesulfonyloxetan-3-yl)-3-(trifluoromethyl)phenoxy]ethyl}-2-oxo-1,2-dihydrospiro[indole-3,4′-piperidine]-5-carbonitrile], for which the pEC50 was 6.79 in test [1] and 7.47 in test [2].
On to `O=C1Nc2ccc(Cl)cc2C12CCN(CCOc1ccc3c(c1)CCNS3(=O)=O)CC2` [Compound 167, 6-(2-{5-chloro-2-oxo-1,2-dihydrospiro[indole-3,4′-piperidin]-1′-yl}ethoxy)-3,4-dihydro-2H-1λ^6,2-benzothiazine-1,1-dione], for which the figures for the pEC50 in test [1] and in test [2] were 6.86 and 7.46, respectively.
